By CC50 is commonly meant the concentration at which the toxic effect on the cells reaches its halfway point. High values mean better tolerance by the cells, low ones harm at low concentration. As a reminder, the EC50 is the concentration needed to bring the measured effect to its halfway point.

Our source for the CC50 and EC50 values is patent publication US20230355626A1, “INHIBITORS OF HUMAN IMMUNODEFICIENCY VIRUS REPLICATION” (VIIV HEALTHCARE UK (NO.5) LIMITED, priority 2020, published 2023).

Data set [1] in a line: Compound cytotoxicity, XTT-based colorimetric assay. It counts as cell-based. The settings on record: human; uninfected MT2 cells, day 4, XTT assay. In a few lines:
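CC50 derived from XTT colorimetric signal measured on day 4 in MT2 cells that were not infected. All other steps followed the antiviral assay protocol.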
(Tetrazolium assays rely on reduction of a dye to a coloured formazan, in cell work by metabolically active cells.)

In the next data set the test system is recombinant NL4-3 virus. The data set can be described thus: HIV cell culture assay (antiviral activity, luciferase readout in infected MT-2 cells). It counts as cell-based. The following applies: Human immunodeficiency virus 1, NL43, MT2. The procedure, abridged: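 MT-2 cells infected for 4-5 days with 293T-derived NL4-3 reporter virus (nef partly replaced by Renilla luciferase) in serial compound dilutions. Live-cell luciferase read-out. EC50 from median effect equation fit.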

As for `Cn1nc(NS(C)(=O)=O)c2c(Cl)ccc(-n3c([C@H](Cc4cc(F)cc(F)c4)NC(=O)Cn4nc(C(F)F)c5c4C(F)(F)[C@@H]4C[C@H]54)nc4nc(OCc5ccn(CC(F)(F)F)n5)ccc4c3=O)c21` (atropisomer, axis not shown; (P)) [Example 24, N-((S)-1-((3P)-3-(4-chloro-1-methyl-3-(methylsulfonamido)-1H-indazol-7-yl)-4-oxo-7-((1-(2,2,2-trifluoroethyl)-1H-pyrazol-3-yl)methoxy)-3,4-dihydropyrido[2,3-d]pyrimidin-2-yl)-2-(3,5-difluorophenyl)ethyl)-2-((3bS,4aR)-3-(difluoromethyl)-5,5-difluoro-3b,4,4a,5-tetrahydro-1H-cyclopropa[3,4]cyclopenta[1,2-c]pyrazol-1-yl)acetamide], the CC50 at 4 day in data set [1] was > 100 nM. Also, the EC50 in the data set with recombinant NL4-3 virus turned out to be 0.057 nM.

For `Cc1cc(C)nc(COc2ccc3c(=O)n(-c4ccc(Cl)c5c(NS(C)(=O)=O)nn(C)c45)c([C@H](Cc4cc(F)cc(F)c4)NC(=O)Cn4nc(C(F)F)c5c4C(F)(F)[C@@H]4C[C@H]54)nc3n2)n1` (atropisomer, axis not shown; (P)) [Example 6, N-((S)-1-((3P,3P)-3-(4-chloro-1-methyl-3-(methylsulfonamido)-1H-indazol-7-yl)-7-((4,6-dimethylpyrimidin-2-yl)methoxy)-4-oxo-3,4-dihydropyrido[2,3-d]pyrimidin-2-yl)-2-(3,5-difluorophenyl)ethyl)-2-((3bS,4aR)-3-(difluoromethyl)-5,5-difluoro-3b,4,4a,5-tetrahydro-1H-cyclopropa[3,4]cyclopenta[1,2-c]pyrazol-1-yl)acetamide], the CC50 at 4 day in data set [1] was > 500 nM. Besides, the half-maximal effective concentration (EC50) in the data set on recombinant NL4-3 virus is 0.036 nM.

`Cn1nc(NS(C)(=O)=O)c2c(Cl)ccc(-n3c([C@H](Cc4cc(F)cc(F)c4)NC(=O)Cn4nc(C(F)F)c5c4C(F)(F)[C@@H]4C[C@H]54)nc4nc(OCC(F)(F)C(F)(F)F)ccc4c3=O)c21` (atropisomer, axis not shown; (P)) [Example 18, N-(1-((3P,3P)-3-(4-chloro-1-methyl-3-(methylsulfonamido)-1H-indazol-7-yl)-4-oxo-7-(2,2,3,3,3-pentafluoropropoxy)-3,4-dihydropyrido[2,3-d]pyrimidin-2-yl)-2-(3,5-difluorophenyl)ethyl)-2-((3bS,4aR)-3-(difluoromethyl)-5,5-difluoro-3b,4,4a,5-tetrahydro-1H-cyclopropa[3,4]cyclopenta[1,2-c]pyrazol-1-yl)acetamide]: the CC50 at 4 day in data set [1] is > 100 nM. In addition, the EC50 in the data set on recombinant NL4-3 virus was determined as 0.031 nM.

Consider `Cn1nc(NS(C)(=O)=O)c2c(Cl)ccc(-n3c([C@H](Cc4cc(F)cc(F)c4)NC(=O)Cn4nc(C(F)F)c5c4C(F)(F)[C@@H]4C[C@H]54)nc4nc(OCc5nccn5C(F)F)ccc4c3=O)c21` (atropisomer, axis not shown; (P)) [Example 28, N-((S)-1-((3P)-3-(4-chloro-1-methyl-3-(methylsulfonamido)-1H-indazol-7-yl)-7-((1-(difluoromethyl)-1H-imidazol-2-yl)methoxy)-4-oxo-3,4-dihydropyrido[2,3-d]pyrimidin-2-yl)-2-(3,5-difluorophenyl)ethyl)-2-((3bS,4aR)-3-(difluoromethyl)-5,5-difluoro-3b,4,4a,5-tetrahydro-1H-cyclopropa[3,4]cyclopenta[1,2-c]pyrazol-1-yl)acetamide], for which the CC50 at 4 day in data set [1] is > 100 nM. Further, the half-maximal effective concentration (EC50) in the data set on recombinant NL4-3 virus was 0.87 nM.

With `Cn1nc(NS(C)(=O)=O)c2c(Cl)ccc(-n3c([C@H](Cc4cc(F)cc(F)c4)NC(=O)Cn4nc(C(F)F)c5c4C(F)(F)[C@@H]4C[C@H]54)nc4nc(OC5CCC(F)(F)CC5)ccc4c3=O)c21` (atropisomer, axis not shown; (P)) [Example 35, N-((S)-1-((3P)-3-(4-chloro-1-methyl-3-(methylsulfonamido)-1H-indazol-7-yl)-7-((4,4-difluorocyclohexyl)oxy)-4-oxo-3,4-dihydropyrido[2,3-d]pyrimidin-2-yl)-2-(3,5-difluorophenyl)ethyl)-2-((3bS,4aR)-3-(difluoromethyl)-5,5-difluoro-3b,4,4a,5-tetrahydro-1H-cyclopropa[3,4]cyclopenta[1,2-c]pyrazol-1-yl)acetamide], in data set [1], the cytotoxic concentration (CC50) at 4 day is > 100 nM. In the data set with recombinant NL4-3 virus, the 50% effective concentration (EC50) came to 0.054 nM.

In the case of `CN(CCOc1ccc2c(=O)n(-c3ccc(Cl)c4c(NS(C)(=O)=O)nn(C)c34)c([C@H](Cc3cc(F)cc(F)c3)NC(=O)Cn3nc(C(F)F)c4c3C(F)(F)[C@@H]3C[C@H]43)nc2n1)S(C)(=O)=O` (atropisomer, axis not shown; (P)) [Example 10, N-((S)-1-((3P)-3-(4-chloro-1-methyl-3-(methylsulfonamido)-1H-indazol-7-yl)-7-(2-(N-methylmethylsulfonamido)ethoxy)-4-oxo-3,4-dihydropyrido[2,3-d]pyrimidin-2-yl)-2-(3,5-difluorophenyl)ethyl)-2-((3bS,4aR)-3-(difluoromethyl)-5,5-difluoro-3b,4,4a,5-tetrahydro-1H-cyclopropa[3,4]cyclopenta[1,2-c]pyrazol-1-yl)acetamide], the CC50 at 4 day in data set [1] is > 500 nM. Besides, in the data set with recombinant NL4-3 virus, the half-maximal effective concentration (EC50) worked out at 0.041 nM.

Turning to `Cn1nc(NS(C)(=O)=O)c2c(Cl)ccc(-n3c([C@H](Cc4cc(F)cc(F)c4)NC(=O)Cn4nc(C(F)F)c5c4C(F)(F)[C@@H]4C[C@H]54)nc4nc(OCc5cccc(C(F)(F)F)n5)ccc4c3=O)c21` (atropisomer, axis not shown; (P)) [Example 22, N-((S)-1-((3P)-3-(4-chloro-1-methyl-3-(methylsulfonamido)-1H-indazol-7-yl)-4-oxo-7-((6-(trifluoromethyl)pyridin-2-yl)methoxy)-3,4-dihydropyrido[2,3-d]pyrimidin-2-yl)-2-(3,5-difluorophenyl)ethyl)-2-((3bS,4aR)-3-(difluoromethyl)-5,5-difluoro-3b,4,4a,5-tetrahydro-1H-cyclopropa[3,4]cyclopenta[1,2-c]pyrazol-1-yl)acetamide], in data set [1], the cytotoxic concentration (CC50) at 4 day was > 100 nM. In addition, the EC50 with recombinant NL4-3 virus is 0.055 nM.

Take `Cn1nc(NS(C)(=O)=O)c2c(Cl)ccc(-n3c([C@H](Cc4cc(F)cc(F)c4)NC(=O)Cn4nc(C(F)F)c5c4C(F)(F)[C@@H]4C[C@H]54)nc4nc(OCCOC(F)F)ccc4c3=O)c21` (atropisomer, axis not shown; (P)) [Example 29, N-((S)-1-((3P)-3-(4-chloro-1-methyl-3-(methylsulfonamido)-1H-indazol-7-yl)-7-(2-(difluoromethoxy)ethoxy)-4-oxo-3,4-dihydropyrido[2,3-d]pyrimidin-2-yl)-2-(3,5-difluorophenyl)ethyl)-2-((3bS,4aR)-3-(difluoromethyl)-5,5-difluoro-3b,4,4a,5-tetrahydro-1H-cyclopropa[3,4]cyclopenta[1,2-c]pyrazol-1-yl)acetamide]: in data set [1], the cytotoxic concentration (CC50) at 4 day is > 100 nM. For the same compound, in the data set with recombinant NL4-3 virus, the EC50 was 0.033 nM.

As for `Cc1ccnc(COc2ccc3c(=O)n(-c4ccc(Cl)c5c(NS(C)(=O)=O)nn(C)c45)c([C@H](Cc4cc(F)cc(F)c4)NC(=O)Cn4nc(C(F)F)c5c4C(F)(F)[C@@H]4C[C@H]54)nc3n2)n1` (atropisomer, axis not shown; (P)) [Example 7, N-((S)-1-((3P,3P)-3-(4-chloro-1-methyl-3-(methylsulfonamido)-1H-indazol-7-yl)-7-((4-methylpyrimidin-2-yl)methoxy)-4-oxo-3,4-dihydropyrido[2,3-d]pyrimidin-2-yl)-2-(3,5-difluorophenyl)ethyl)-2-((3bS,4aR)-3-(difluoromethyl)-5,5-difluoro-3b,4,4a,5-tetrahydro-1H-cyclopropa[3,4]cyclopenta[1,2-c]pyrazol-1-yl)acetamide], the CC50 at 4 day in data set [1] is > 500 nM. Further, the EC50 with recombinant NL4-3 virus turned out to be 0.059 nM.

As to `Cn1nc(NS(C)(=O)=O)c2c(Cl)ccc(-n3c([C@H](Cc4cc(F)cc(F)c4)NC(=O)Cn4nc(C(F)F)c5c4C(F)(F)[C@@H]4C[C@H]54)nc4nc(OCc5nc(C(F)(F)F)cs5)ccc4c3=O)c21` (atropisomer, axis not shown; (P)) [Example 23, N-((S)-1-((3P)-3-(4-chloro-1-methyl-3-(methylsulfonamido)-1H-indazol-7-yl)-4-oxo-7-((4-(trifluoromethyl)thiazol-2-yl)methoxy)-3,4-dihydropyrido[2,3-d]pyrimidin-2-yl)-2-(3,5-difluorophenyl)ethyl)-2-((3bS,4aR)-3-(difluoromethyl)-5,5-difluoro-3b,4,4a,5-tetrahydro-1H-cyclopropa[3,4]cyclopenta[1,2-c]pyrazol-1-yl)acetamide], in data set [1], the cytotoxic concentration (CC50) at 4 day was > 100 nM. Also, the EC50 with recombinant NL4-3 virus is 0.1 nM.

As to `Cn1nc(NS(C)(=O)=O)c2c(Cl)ccc(-n3c([C@H](Cc4cc(F)cc(F)c4)NC(=O)Cn4nc(C(F)F)c5c4C(F)(F)[C@@H]4C[C@H]54)nc4nc(OCC(F)(F)C(F)F)ccc4c3=O)c21` (atropisomer, axis not shown; (P)) [Example 27, N-((S)-1-((3P,3P)-3-(4-chloro-1-methyl-3-(methylsulfonamido)-1H-indazol-7-yl)-4-oxo-7-(2,2,3,3-tetrafluoropropoxy)-3,4-dihydropyrido[2,3-d]pyrimidin-2-yl)-2-(3,5-difluorophenyl)ethyl)-2-((3bS,4aR)-3-(difluoromethyl)-5,5-difluoro-3b,4,4a,5-tetrahydro-1H-cyclopropa[3,4]cyclopenta[1,2-c]pyrazol-1-yl)acetamide], in data set [1], the CC50 at 4 day is > 100 nM. Moreover, the EC50 in the data set on recombinant NL4-3 virus turned out to be 0.022 nM.
